The record followed here is paper PMC6155721, “Hair Growth Promoting and Anticancer Effects of p21-activated kinase 1 (PAK1) Inhibitors Isolated from Different Parts of Alpinia zerumbet” (Molecules : A Journal of Synthetic Chemistry and Natural …, 2017).

As a reminder, the IC50 is the midpoint of a concentration-inhibition curve. The term viability denotes a read-out of living cells in per cent, often relative to untreated cells.

Series [1] relates to A549 lung cancer cells. In words: Anticancer activity by MTT assay. The class given is cell-based. The settings on record: mean ± SE of six replications, read-out: IC50 (μM), anti-cancer activity against the A549 cell line. Here is the method: The assay was performed as previously described. Lung cancer cells (A549) were seeded into a 96-well plate at a density of 1 × 10^4 cells/well, and cultured for 24 h before the compounds were added. The cells were incubated in a humidified atmosphere of 5% CO2 at 37 °C for 72 h. After treatment, 20 μL MTT solution (0.5 mg/mL) was added to each well, and the plates were incubated for 3 h. The medium was removed, and the formazan was dissolved in 200 μL of DMSO. After shaking the plate for 10 min, cell viability was assessed by measuring the absorbance at 490 nm using a microplate reader (Corona, Hitachinaka-ku, Ibaraki, Japan). DMSO was used as a blank. The corrected absorbance of sample was divided by the corrected absorbance of the control, and then multiplied by 100% to give the percentage cell viability.
For orientation: Formazan colour is commonly taken as a measure of viable cells.

The subject of series [2] is human follicle dermal papilla cells (HFDPC). In words: Human follicle dermal papilla cell (HFDPC) proliferation, MTT assay. Conditions: for proliferation of HFDPC / Cell viability (%) / viability at 10 µM / viability at 50 µM / viability at 100 µM: four days incubation; for viability at 10 µM / viability at 50 µM / viability at 100 µM: Homo sapiens, 96 h. The class given is cell-based. How it is done:
Human follicle dermal papilla cell (HFDPC) (TOYOBO, Tokyo, Japan) proliferation was assayed as described by Nguyen et al.. Cells were cultured in growth medium containing 50 mL papilla cell growth medium (PCGM), 0.5 mL FCS, 0.5 mL BPE, 0.25 mL Cyp, and 0.25 mL ITT (51.5 mL total volume). Cell viability was evaluated using the thiazolyl blue tetrazolium bromide (MTT) assay. Cells were collected and diluted in medium containing D-MEM and 10% FBS at a cell density of 1 × 10^4 cells/mL. Then, cell suspension (200 μL) was transferred into a collagen-coated 96-well plate at a density of 2000 cells/well. After incubation for three days, 200 μL of the isolated compounds in DMEM was added. After four days of incubation, 100 μL of MTT solution in D-MEM (0.4 mg/mL) was added, and the mixture was incubated for 2 h. The untransformed MTT was removed, and 100 μL of 2-propanol was added to each well to dissolve the formazan crystals. The absorbance was read at 570 nm and 650 nm using a microplate reader. The cell viability was calculated from the readings, and represented as a percentage of the control value (cells treated with D-MEM only).

Series [3] has as its target human PAK1 (Homo sapiens, UniProt Q13153). Briefly: In vitro PAK1 inhibition, ADP-Glo kinase assay. The class given is biochemical. The settings on record: mean ± SE of six replications, read-out: IC50 (μM), in vitro PAK1 inhibitory activity. Here is the method: PAK1 kinase activity was measured using the ADP-Glo™ kinase assay kit (Promega, Madison, WI, USA) according to manufacturer’s instructions. Briefly, human PAK1 (25 ng/reaction) was incubated with test compounds (5 μL) for 10 min. […] The reaction was terminated by adding 25 μL ADP-Glo™ reagent, followed by an incubation time of 40 min. The kinase detection reagent (50 μL) was added to the reaction mixture, and after 30 min of incubation, the luminescence was recorded by MTP-880Lab microplate reader (Corona, Ibaraki, Japan) with an integration time of 0.5 s per well. The percentage inhibition was calculated relative to the control kinase activity without any inhibitor.
For orientation: In ADP-Glo the light output rises with the ADP produced.

Where [4] appears, read: 100 μM, percentage of control value.
The mark [5] stands for this setting: 10 μM, percentage of control value (cells treated with D-MEM only).

Where “and” joins values, the source holds several entries; their conditions need not be identical. Identical values can stand only once. Like-named read-outs stand apart in the source and are kept apart here.

Sequence of human PAK1 (Q13153 whole entry): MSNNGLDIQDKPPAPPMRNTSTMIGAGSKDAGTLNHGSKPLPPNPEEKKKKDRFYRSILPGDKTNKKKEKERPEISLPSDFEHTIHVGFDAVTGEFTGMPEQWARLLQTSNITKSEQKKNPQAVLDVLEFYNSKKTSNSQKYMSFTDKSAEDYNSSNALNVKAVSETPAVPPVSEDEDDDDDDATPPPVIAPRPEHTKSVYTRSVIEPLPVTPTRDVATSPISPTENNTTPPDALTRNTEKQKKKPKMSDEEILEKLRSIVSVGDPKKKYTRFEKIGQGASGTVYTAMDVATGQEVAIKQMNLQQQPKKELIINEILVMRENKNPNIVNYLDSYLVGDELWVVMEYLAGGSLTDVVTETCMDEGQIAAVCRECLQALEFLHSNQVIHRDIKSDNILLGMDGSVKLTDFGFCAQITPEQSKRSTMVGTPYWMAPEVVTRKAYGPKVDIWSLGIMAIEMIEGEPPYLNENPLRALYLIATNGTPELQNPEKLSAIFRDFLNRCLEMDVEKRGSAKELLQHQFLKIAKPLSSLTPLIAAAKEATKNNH

As to `COc1cc(/C=C/C(=O)CC(=O)/C=C/c2ccc(O)c(OC)c2)ccc1O` [Curcumin, reference compound], the half-inhibitory concentration (IC50) in series [1] (72 h) was determined as 30.3 ± 2.9 µM; in series [1] (Homo sapiens, A549, 72 h) it was 30 µM.

For `O=C(O)C1OC(Oc2c(-c3ccc(O)cc3)oc3cc(O)cc(O)c3c2=O)C(O)C(O)C1O` [KOG, kaempferol-3-O-β-D-glucuronide], in series [2] (setting [4]), the “proliferation of HFDPC / Cell viability (%)” value is listed as about 180% and the viability at 100 µM was 181%. In addition, the viability at 10 µM in series [2] (setting [5]) came to 118%. The viability at 50 µM in series [2] (percentage of control value) came to 158%. The IC50 in series [1] (Homo sapiens, A549, 72 h) came out at 81.4 ± 1.9 µM. Besides, the half-maximal inhibitory concentration (IC50) in series [3] is 39 µM and 39.3 µM.

For `C=C1CCC2C(C)(C)CCCC2(C)C1C/C=C(/C=O)CC=O` (centres unmarked) [Labdadiene, 8(17),12-Labdadiene-15,16-dial], the “proliferation of HFDPC / Cell viability (%)” value in series [2] (setting [5]) is “about 132%”; in series [2] (setting [4]) it was about 226%. The viability at 10 µM in series [2] (setting [5]) is 133%. Besides, in series [2] (percentage of control value), the viability at 50 µM came to 197%. The viability at 100 µM in series [2] (setting [4]) is 227%. Also, the half-inhibitory concentration (IC50) in series [1] (72 h) was 67.1 ± 6 µM; in series [1] (Homo sapiens, A549, 72 h) it was 67 µM; in series [3], 52 µM and 52.1 µM.

As for `CO/C=C/C=C/C=C/C1C=CC(/C=C/C=C/C=C/OC)O1` (centres unmarked) [MTD], the viability at 10 µM in series [2] (setting [5]) was 165%. In addition, the viability at 50 µM in series [2] (percentage of control value) came to 190%. Moreover, the viability at 100 µM in series [2] (setting [4]) was found to be 113%. Besides, the IC50 in series [1] (Homo sapiens, A549, 72 h) was 98.9 ± 9.3 µM; in series [3], 59 µM and 58.6 µM.

On to `Nc1cc(N2CCCCC2)nc(N)[n+]1[O-]` [Minoxidil, reference compound], for which, in series [2] (setting [5]), the “proliferation of HFDPC / Cell viability (%)” value came to 119% and the viability at 10 µM was 116%.

With `C=C1CC2CC(C)(C)C(C)(C)CN2CC1CCCCC/C=C/C` (centres unmarked) [TMOQ, (E)-2,2,3,3-tetramethyl-8-methylene-7-(oct-6-en-1-yl)octahydro-1H-quinolizine], in series [2] (setting [5]), the viability at 10 µM was 139%. For the same compound, in series [2] (percentage of control value), the viability at 50 µM was 104%. The viability at 100 µM in series [2] (setting [4]) was 68.5%. In addition, the “effect on hair cell proliferation” value in series [2] (at around 50 μM or higher) was “did not significantly affect the hair cell proliferation”. For the same compound, the half-inhibitory concentration (IC50) was 90.8 ± 1.6 µM in series [1] (Homo sapiens, 72 h); 49 µM and ~50 µM and 49.3 µM in series [3].
